In this test the target is T1, hNav1.8 (Homo sapiens, UniProt Q9Y5Y9).
T1 construct: host or cells: HEK cells, stably transfected
As to the kind of experiment: hNav1.8 whole-cell patch-clamp electrophysiology (conventional or PatchXpress 7000) in stably transfected HEK cells. Type of test: cell-based. The method in brief: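 Whole-cell voltage clamp at 22-24 °C in HEK cells stably expressing hNav1.8, manually or on PatchXpress. Current evoked by 20 msec step to 0 mV after 8 s prepulse to each cell's inactivation V1/2; single-concentration % inhibition converted to estimated IC50, using only 20-80% inhibition values, averaged over replicates.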
Background: Patch clamp records ionic current or voltage across a cell membrane.

[1] abbreviates: estimated IC50 calculated from single point % inhibition, HEK cells expressing hNav1.8, 8 sec prepulse to V1/2, 20 msec step to 0 mV, average of replicates, read-out: Nav1.8 EIC50.

The structures appear in SMILES notation. pIC50: −log10 of the molar value. Like-named read-outs stand apart in the source and are kept apart here.

T1 sequence (Q9Y5Y9 whole entry): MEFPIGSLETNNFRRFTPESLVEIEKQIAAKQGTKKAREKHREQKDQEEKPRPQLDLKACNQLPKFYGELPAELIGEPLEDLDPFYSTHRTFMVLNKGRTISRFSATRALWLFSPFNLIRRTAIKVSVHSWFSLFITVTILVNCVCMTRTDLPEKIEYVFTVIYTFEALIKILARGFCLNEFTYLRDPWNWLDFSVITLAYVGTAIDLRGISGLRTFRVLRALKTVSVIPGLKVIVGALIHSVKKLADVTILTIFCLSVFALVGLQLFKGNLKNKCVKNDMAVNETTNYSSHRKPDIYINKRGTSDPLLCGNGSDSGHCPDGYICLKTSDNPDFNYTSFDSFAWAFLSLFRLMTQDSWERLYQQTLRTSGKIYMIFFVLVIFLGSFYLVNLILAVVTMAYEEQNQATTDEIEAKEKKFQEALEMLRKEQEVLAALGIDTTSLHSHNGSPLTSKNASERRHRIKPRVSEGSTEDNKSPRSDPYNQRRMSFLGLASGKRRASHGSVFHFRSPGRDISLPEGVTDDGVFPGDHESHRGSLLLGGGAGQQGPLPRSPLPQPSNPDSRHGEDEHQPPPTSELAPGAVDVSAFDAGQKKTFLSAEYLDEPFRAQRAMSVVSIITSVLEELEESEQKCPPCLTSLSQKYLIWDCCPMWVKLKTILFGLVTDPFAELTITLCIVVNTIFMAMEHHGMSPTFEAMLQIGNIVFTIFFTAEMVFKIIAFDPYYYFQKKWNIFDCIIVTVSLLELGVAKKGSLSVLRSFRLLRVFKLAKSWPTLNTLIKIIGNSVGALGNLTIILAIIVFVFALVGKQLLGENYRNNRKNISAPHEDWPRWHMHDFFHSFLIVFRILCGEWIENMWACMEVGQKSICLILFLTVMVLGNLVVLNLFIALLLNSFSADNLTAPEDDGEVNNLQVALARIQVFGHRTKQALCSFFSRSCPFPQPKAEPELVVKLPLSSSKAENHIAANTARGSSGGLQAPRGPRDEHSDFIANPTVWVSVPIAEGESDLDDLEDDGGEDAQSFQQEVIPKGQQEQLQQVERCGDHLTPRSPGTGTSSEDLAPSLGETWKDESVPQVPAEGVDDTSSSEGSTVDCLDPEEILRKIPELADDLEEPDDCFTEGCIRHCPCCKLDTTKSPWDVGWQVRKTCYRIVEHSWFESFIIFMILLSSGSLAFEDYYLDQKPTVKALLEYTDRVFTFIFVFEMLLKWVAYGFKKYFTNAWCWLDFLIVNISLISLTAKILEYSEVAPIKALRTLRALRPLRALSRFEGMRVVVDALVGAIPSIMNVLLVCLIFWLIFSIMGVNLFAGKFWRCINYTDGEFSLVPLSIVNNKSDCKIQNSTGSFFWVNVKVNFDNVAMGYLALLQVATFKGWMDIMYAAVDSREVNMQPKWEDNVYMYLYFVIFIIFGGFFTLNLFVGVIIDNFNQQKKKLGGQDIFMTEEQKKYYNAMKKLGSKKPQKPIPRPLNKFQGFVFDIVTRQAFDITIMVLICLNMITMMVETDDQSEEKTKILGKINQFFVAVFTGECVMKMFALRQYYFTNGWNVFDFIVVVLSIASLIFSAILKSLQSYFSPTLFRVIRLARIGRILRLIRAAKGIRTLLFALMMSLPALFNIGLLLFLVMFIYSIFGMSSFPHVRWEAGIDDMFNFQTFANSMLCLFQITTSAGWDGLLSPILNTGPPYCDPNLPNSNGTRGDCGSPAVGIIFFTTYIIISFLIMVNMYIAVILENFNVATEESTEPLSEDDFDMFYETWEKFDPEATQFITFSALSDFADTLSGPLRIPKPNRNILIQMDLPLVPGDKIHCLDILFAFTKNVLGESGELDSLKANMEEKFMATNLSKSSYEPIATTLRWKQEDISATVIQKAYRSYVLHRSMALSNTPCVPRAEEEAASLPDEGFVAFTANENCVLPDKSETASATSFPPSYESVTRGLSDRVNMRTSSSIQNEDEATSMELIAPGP

With `C[C@@H](C(N)=O)[C@H](N)c1nc2cc(-c3ccc(C#N)c(F)c3)ccc2[nH]1` [Example 109, (2R,3S)-3-Amino-3-[5-(4-cyano-3-fluorophenyl)-1H-benzimidazol-2-yl]-2-methylpropanamide], the pIC50 under setting [1] was 7.25.
The same measure, in the same setting: under `CCCCc1ccc2[nH]c(C(C)(C)N)nc2c1` [Example 65, 2-(5-Butyl-1H-benzimidazol-2-yl)propan-2-amine] stands 5.57; under `C[C@H](O)[C@H](N)c1nc2cc(-c3ccc(C#N)cc3)ccc2[nH]1` [Example 138, 4-{2-[(1R,2S)-1-Amino-2-hydroxypropyl]-1H-benzimidazol-5-yl}benzonitrile], 6.31; under `C[C@@H](N)c1nc2cc(C(C)(C)C)ccc2[nH]1` [Example 10, (1R)-1-(5-tert-Butyl-1H-benzimidazol-2-yl)ethanamine], 6.22.
The compound `CC(C)(C)c1ccc2[nH]c(C3(N)CCCCC3)nc2c1` [Example 17, 1-(5-tert-Butyl-1H-benzimidazol-2-yl)cyclohexanamine] had a pIC50 of 6.33.
Consider `C[C@@H](O)[C@H](N)c1nc2cc(-c3ccc(C#N)cc3F)ccc2[nH]1` [Example 101, 4-{2-[(1R,2R)-1-Amino-2-hydroxypropyl]-1H-benzimidazol-5-yl}-3-fluorobenzonitrile], for which the pIC50 under setting [1] was 6.70.
Same read-out and setting: under `CCC(C)(C)c1ccc2[nH]c(C(C)(C)N)nc2c1` [Example 68, 2-[5-(2-Methylbutan-2-yl)-1H-benzimidazol-2-yl]propan-2-amine] stands 6.20; under `CC(C)(C)[C@H](N)c1nc2cc(-c3ccc(C#N)cc3)ccc2[nH]1` [Example 57, 4-{2-[(1S)-1-amino-2,2-dimethylpropyl]-1H-benzimidazol-5-yl}benzonitrile], 5.60; under `CC(C)(N)c1nc2cc(-c3cc(F)cc(C#N)c3)ccc2[nH]1` [Example 70, 3-[2-(1-Amino-1-methylethyl)-1H-benzimidazol-5-yl]-5-fluorobenzonitrile], 5.50.
Still for that read-out and setting: the same measure for `CC(C)c1ccc2[nH]c([C@H](N)[C@@H](C)O)nc2c1` [Example 148, (1S,2R)-1-Amino-1-[5-(propan-2-yl)-1H-benzimidazol-2-yl]propan-2-ol]: 6.00; for `CO[C@H](C)[C@H](N)c1nc2cc(-c3ccc(C#N)cc3Cl)ccc2[nH]1` [Example 84, 4-{2-[(1R,2R)-1-Amino-2-methoxypropyl]-1H-benzimidazol-5-yl}-3-chlorobenzonitrile]: 7.09.
Still for that read-out and setting: under `CO[C@H](C)[C@H](N)c1nc2cc(C(C)C)ccc2[nH]1` [Example 123, (1R,2R)-2-Methoxy-1-[5-(propan-2-yl)-1H-benzimidazol-2-yl]propan-1-amine] stands 5.97; under `CC(C)(C)c1ccc2[nH]c([C@H]3NCC[C@H]3O)nc2c1` [Example 136, (2R,3R)-2-(5-tert-Butyl-1H-benzimidazol-2-yl)pyrrolidin-3-ol], 6.29.
With `CC(C)(C)c1ccc2[nH]c([C@@H]3CCN3)nc2c1` [Example 129, 2-[(2S)-Azetidin-2-yl]-5-tert-butyl-1H-benzimidazole], under setting [1], the pIC50 was 6.29.
Same read-out and setting: under `CC(C)CC[C@H](N)c1nc2cc(C(C)(C)C)ccc2[nH]1` [Example 1, (1S)-1-(5-tert-Butyl-1H-benzimidazol-2-yl)-4-methylpentan-1-amine] stands 6.90; under `CCC(C)(C)c1ccc2[nH]c(C3(N)Cc4ccccc4C3)nc2c1` [Example 33, 2-[5-(2-Methylbutan-2-yl)-1H-benzimidazol-2-yl]-2,3-dihydro-1H-inden-2-amine], 6.58.
Same read-out and setting: the same measure for `CC[C@H](N)c1nc2cc(-c3ccc(C#N)cc3)ccc2[nH]1` [Example 81, 4-{2-[(1S)-1-Aminopropyl]-1H-benzimidazol-5-yl}benzonitrile]: 7.08.
Same read-out and setting: under `CC(C)(C)c1ccc2[nH]c(C3(N)CCCC3)nc2c1` [Example 13, 1-(5-tert-Butyl-1H-benzimidazol-2-yl)cyclopentanamine] stands 6.30; under `C[C@@H](O)[C@H](N)c1nc2cc(-c3cc(F)c(C#N)c(F)c3)ccc2[nH]1` [Example 89, 4-{2-[(1R,2R)-1-Amino-2-hydroxypropyl]-1H-benzimidazol-5-yl}-2,6-difluorobenzonitrile], 5.62; under `N#Cc1ccc(-c2ccc3[nH]c(C4(N)Cc5ccccc5C4)nc3c2)cc1F` [Example 114, 4-[2-(2-Amino-2,3-dihydro-1H-inden-2-yl)-1H-benzimidazol-5-yl]-2-fluorobenzonitrile], 7.56.
Take `CC(C)(N)c1nc2cc(-c3ccc(Cl)c(C#N)c3)ccc2[nH]1` [Example 71, 5-[2-(1-Amino-1-methylethyl)-1H-benzimidazol-5-yl]-2-chlorobenzonitrile]: the pIC50 under setting [1] is 5.41.
As to `C[C@@H](C(=O)N(C)C)[C@H](N)c1nc2cc(C(C)(C)C)ccc2[nH]1` [Example 149, (2R,3S)-3-Amino-3-(5-tert-butyl-1H-benzimidazol-2-yl)-N,N,2-trimethylpropanamide], the pIC50 under setting [1] is 6.52.
Same read-out and setting: the same measure for `N#Cc1ccc(-c2ccc3[nH]c([C@@H]4C[C@@H](O)CN4)nc3c2)cc1` (stereo in doubt) [Example 46, 4-{2-[(2S,4R)-4-Hydroxypyrrolidin-2-yl]-1H-benzimidazol-5-yl}benzonitrile]: 6.15.
Still for that read-out and setting: under `CCC(C)(C)c1ccc2[nH]c([C@@H](N)[C@@H](C)O)nc2c1` [Example 39, (1R,2R)-1-Amino-1-[5-(2-methylbutan-2-yl)-1H-benzimidazol-2-yl]propan-2-ol] stands 7.27.
The same measure, in the same setting: the same measure for `C[C@@H](N)c1nc2cc(-c3ccc(C#N)cc3)ccc2[nH]1` [Example 54, 4-{2-[(1R)-1-aminoethyl]-1H-benzimidazol-5-yl}benzonitrile]: 6.18.
On to `N#Cc1ccc(-c2ccc3[nH]c([C@@H]4C[C@H](O)CN4)nc3c2)cc1` [Example 49, 4-{2-[(2S,4S)-4-Hydroxypyrrolidin-2-yl]-1H-benzimidazol-5-yl}benzonitrile], for which the pIC50 under setting [1] was 5.98.
Same read-out and setting: under `CO[C@H](C)[C@H](N)c1nc2c(Cl)c(-c3ccc(C#N)c(F)c3)ccc2[nH]1` [Example 120, 4-{2-[(1R,2R)-1-Amino-2-methoxypropyl]-4-chloro-1H-benzimidazol-5-yl}-2-fluorobenzonitrile] stands 7.05; under `CC(C)(C)c1ccc2[nH]c([C@@H]3C[C@@H](F)CN3)nc2c1` [Example 131, 5-tert-Butyl-2-[(2S,4R)-4-fluoropyrrolidin-2-yl]-1H-benzimidazole], 6.40; under `C[C@H](N)c1nc2cc(-c3ccc(C#N)cc3)ccc2[nH]1` [Example 64, 4-{2-[(1S)-1-aminoethyl]-1H-benzimidazol-5-yl}benzonitrile], 6.00.
For `CC(C)(C)c1ccc2[nH]c([C@@H](N)C(C)(C)O)nc2c1` [Example 102, (1R)-1-Amino-1-(5-tert-butyl-1H-benzimidazol-2-yl)-2-methylpropan-2-ol], under setting [1], the pIC50 was 7.15.
Take `CO[C@H](C)[C@H](N)c1nc2cc(C(C)(C)C)ccc2[nH]1` [Example 21, (1R,2R)-1-(5-tert-Butyl-1H-benzimidazol-2-yl)-2-methoxypropan-1-amine]: under setting [1], the pIC50 was 7.49.
With `CC(C)[C@H](N)c1nc2cc(C(C)(C)C)ccc2[nH]1` [Example 5, (1S)-1-(5-tert-Butyl-1H-benzimidazol-2-yl)-2-methylpropan-1-amine], under setting [1], the pIC50 was 6.44.
In the case of `CC(C)[C@@H](O)[C@H](N)c1nc2cc(C(C)(C)C)ccc2[nH]1` [Example 133, (1R,2R)-1-Amino-1-(5-tert-butyl-1H-benzimidazol-2-yl)-3-methylbutan-2-ol], the pIC50 under setting [1] was 6.64.
Turning to `CC[C@@H](N)c1nc2cc(C(C)(C)C)ccc2[nH]1` [Example 97, (1R)-1-(5-tert-Butyl-1H-benzimidazol-2-yl)propan-1-amine], the pIC50 under setting [1] was 6.82.
Still for that read-out and setting: the same measure for `CC(C)(C)c1ccc2[nH]c([C@@H](N)C(C)(C)C(N)=O)nc2c1` [Example 141, (3S)-3-Amino-3-(5-tert-butyl-1H-benzimidazol-2-yl)-2,2-dimethylpropanamide]: 6.10; for `N#Cc1ccc(-c2ccc3[nH]c([C@H](N)c4ccccc4)nc3c2)cc1` [Example 36, 4-{2-[(R)-Amino(phenyl)methyl]-1H-benzimidazol-5-yl}benzonitrile]: 6.64.
The same measure, in the same setting: the same measure for `CO[C@H](C)[C@H](N)c1nc2cc(-c3ccc(C#N)c(F)c3)ccc2[nH]1` [Example 85, 4-{2-[(1R,2R)-1-Amino-2-methoxypropyl]-1H-benzimidazol-5-yl}-2-fluorobenzonitrile]: 7.98.
Still for that read-out and setting: the same measure for `CCC(C)(C)c1ccc2[nH]c([C@@H](C)N)nc2c1` [Example 41, (1R)-1-[5-(2-Methylbutan-2-yl)-1H-benzimidazol-2-yl]ethanamine]: 6.19.
Take `CC[C@@H](O)[C@H](N)c1nc2cc(C(C)C)ccc2[nH]1` [Example 126, (1R,2R)-1-Amino-1-[5-(propan-2-yl)-1H-benzimidazol-2-yl]butan-2-ol]: the pIC50 under setting [1] was 6.01.
Same read-out and setting: under `CO[C@@H](C)[C@H](N)c1nc2cc(C(C)C)ccc2[nH]1` [Example 127, (1R,2S)-2-Methoxy-1-[5-(propan-2-yl)-1H-benzimidazol-2-yl]propan-1-amine] stands 5.56; under `CC(N)(CO)c1nc2cc(-c3ccc(C#N)c(F)c3)ccc2[nH]1` (stereo not drawn) [Example 150, 4-(2-(2-Amino-1-hydroxypropan-2-yl)-1H-benzo[d]imidazol-5-yl)-2-fluorobenzonitrile], 6.87.
The same measure, in the same setting: under `N#Cc1ccc(-c2ccc3[nH]c([C@@H](N)CO)nc3c2)cc1` [Example 82, 4-{2-[(1R)-1-Amino-2-hydroxyethyl]-1H-benzimidazol-5-yl}benzonitrile] stands 6.49.

(Values after patent US8927587B2, “Chemical compounds” (Pfizer Limited, priority 2012, dated 2015).)
